In ChEMBL document CHEMBL4507275, “Data for DCP probe BI-2545” (2021):

Experiments:
[1] = biological target: Histamine H3 receptor (Homo sapiens) (UniProt Q9Y5N1); settings: Compound concentration 10.0 uM
[2] = biological target: Serine/threonine-protein kinase 25 (Homo sapiens) (UniProt O00506); settings: Compound concentration 1000.0 nM
[3] = biological target: Ribosomal protein S6 kinase alpha-1 (Homo sapiens) (UniProt Q15418); settings: Compound concentration 1000.0 nM
[4] = biological target: Mitogen-activated protein kinase kinase kinase 13 (Homo sapiens) (UniProt O43283); settings: Compound concentration 1000.0 nM
[5] = biological target: Serine/threonine-protein kinase TNNI3K (Homo sapiens) (UniProt Q59H18); settings: Compound concentration 1000.0 nM
[6] = biological target: Ribosomal protein S6 kinase alpha-6 (Homo sapiens) (UniProt Q9UK32); settings: Compound concentration 1000.0 nM
Ribosomal protein S6 kinase alpha-6 (Homo sapiens), sequence (Q9UK32 whole entry): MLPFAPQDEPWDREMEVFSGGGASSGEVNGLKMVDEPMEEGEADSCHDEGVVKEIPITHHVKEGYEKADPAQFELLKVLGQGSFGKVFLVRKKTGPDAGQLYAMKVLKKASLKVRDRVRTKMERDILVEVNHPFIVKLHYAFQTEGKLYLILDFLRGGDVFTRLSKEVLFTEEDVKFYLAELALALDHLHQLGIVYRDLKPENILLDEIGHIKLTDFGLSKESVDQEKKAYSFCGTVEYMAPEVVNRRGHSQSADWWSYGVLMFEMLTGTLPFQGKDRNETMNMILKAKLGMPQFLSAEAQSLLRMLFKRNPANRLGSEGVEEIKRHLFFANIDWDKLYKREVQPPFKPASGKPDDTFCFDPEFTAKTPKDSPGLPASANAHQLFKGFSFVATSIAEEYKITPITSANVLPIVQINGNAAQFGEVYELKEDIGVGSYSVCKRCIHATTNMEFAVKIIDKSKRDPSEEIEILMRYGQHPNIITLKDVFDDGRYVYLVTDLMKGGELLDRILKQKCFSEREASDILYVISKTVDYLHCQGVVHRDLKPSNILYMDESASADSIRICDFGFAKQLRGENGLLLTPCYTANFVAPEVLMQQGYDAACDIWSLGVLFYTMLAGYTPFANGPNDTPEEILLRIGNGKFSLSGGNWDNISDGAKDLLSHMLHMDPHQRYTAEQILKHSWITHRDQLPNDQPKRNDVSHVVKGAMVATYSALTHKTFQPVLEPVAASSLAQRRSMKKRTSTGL

[7] = system: Tyrosine-protein kinase ABL1 (Homo sapiens), P00519 [H396P]; settings: Compound concentration 1000.0 nM
[8] = biological target: ALK tyrosine kinase receptor (Homo sapiens) (UniProt Q9UM73); settings: Compound concentration 1000.0 nM
[9] = biological target: 5-hydroxytryptamine receptor 1E (Homo sapiens) (UniProt P28566); settings: Compound concentration 10.0 uM
5-hydroxytryptamine receptor 1E (Homo sapiens), sequence (P28566 whole entry): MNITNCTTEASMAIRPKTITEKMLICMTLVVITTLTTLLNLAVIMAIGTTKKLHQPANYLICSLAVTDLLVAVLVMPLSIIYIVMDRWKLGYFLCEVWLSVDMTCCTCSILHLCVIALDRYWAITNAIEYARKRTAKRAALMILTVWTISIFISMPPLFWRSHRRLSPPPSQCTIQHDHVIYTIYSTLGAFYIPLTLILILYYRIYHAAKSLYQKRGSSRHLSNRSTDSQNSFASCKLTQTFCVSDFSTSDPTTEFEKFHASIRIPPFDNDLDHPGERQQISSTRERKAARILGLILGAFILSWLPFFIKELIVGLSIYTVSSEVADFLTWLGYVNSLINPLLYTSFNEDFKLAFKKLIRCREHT

[10] = system: Epidermal growth factor receptor (Homo sapiens), P00533 [G719S]; settings: Compound concentration 1000.0 nM
[11] = biological target: Transient receptor potential cation channel subfamily M member 6 (Homo sapiens) (UniProt Q9BX84); settings: Compound concentration 1000.0 nM
[12] = biological target: Citron Rho-interacting kinase (Homo sapiens) (UniProt O14578); settings: Compound concentration 1000.0 nM
Citron Rho-interacting kinase (Homo sapiens), sequence (O14578 whole entry): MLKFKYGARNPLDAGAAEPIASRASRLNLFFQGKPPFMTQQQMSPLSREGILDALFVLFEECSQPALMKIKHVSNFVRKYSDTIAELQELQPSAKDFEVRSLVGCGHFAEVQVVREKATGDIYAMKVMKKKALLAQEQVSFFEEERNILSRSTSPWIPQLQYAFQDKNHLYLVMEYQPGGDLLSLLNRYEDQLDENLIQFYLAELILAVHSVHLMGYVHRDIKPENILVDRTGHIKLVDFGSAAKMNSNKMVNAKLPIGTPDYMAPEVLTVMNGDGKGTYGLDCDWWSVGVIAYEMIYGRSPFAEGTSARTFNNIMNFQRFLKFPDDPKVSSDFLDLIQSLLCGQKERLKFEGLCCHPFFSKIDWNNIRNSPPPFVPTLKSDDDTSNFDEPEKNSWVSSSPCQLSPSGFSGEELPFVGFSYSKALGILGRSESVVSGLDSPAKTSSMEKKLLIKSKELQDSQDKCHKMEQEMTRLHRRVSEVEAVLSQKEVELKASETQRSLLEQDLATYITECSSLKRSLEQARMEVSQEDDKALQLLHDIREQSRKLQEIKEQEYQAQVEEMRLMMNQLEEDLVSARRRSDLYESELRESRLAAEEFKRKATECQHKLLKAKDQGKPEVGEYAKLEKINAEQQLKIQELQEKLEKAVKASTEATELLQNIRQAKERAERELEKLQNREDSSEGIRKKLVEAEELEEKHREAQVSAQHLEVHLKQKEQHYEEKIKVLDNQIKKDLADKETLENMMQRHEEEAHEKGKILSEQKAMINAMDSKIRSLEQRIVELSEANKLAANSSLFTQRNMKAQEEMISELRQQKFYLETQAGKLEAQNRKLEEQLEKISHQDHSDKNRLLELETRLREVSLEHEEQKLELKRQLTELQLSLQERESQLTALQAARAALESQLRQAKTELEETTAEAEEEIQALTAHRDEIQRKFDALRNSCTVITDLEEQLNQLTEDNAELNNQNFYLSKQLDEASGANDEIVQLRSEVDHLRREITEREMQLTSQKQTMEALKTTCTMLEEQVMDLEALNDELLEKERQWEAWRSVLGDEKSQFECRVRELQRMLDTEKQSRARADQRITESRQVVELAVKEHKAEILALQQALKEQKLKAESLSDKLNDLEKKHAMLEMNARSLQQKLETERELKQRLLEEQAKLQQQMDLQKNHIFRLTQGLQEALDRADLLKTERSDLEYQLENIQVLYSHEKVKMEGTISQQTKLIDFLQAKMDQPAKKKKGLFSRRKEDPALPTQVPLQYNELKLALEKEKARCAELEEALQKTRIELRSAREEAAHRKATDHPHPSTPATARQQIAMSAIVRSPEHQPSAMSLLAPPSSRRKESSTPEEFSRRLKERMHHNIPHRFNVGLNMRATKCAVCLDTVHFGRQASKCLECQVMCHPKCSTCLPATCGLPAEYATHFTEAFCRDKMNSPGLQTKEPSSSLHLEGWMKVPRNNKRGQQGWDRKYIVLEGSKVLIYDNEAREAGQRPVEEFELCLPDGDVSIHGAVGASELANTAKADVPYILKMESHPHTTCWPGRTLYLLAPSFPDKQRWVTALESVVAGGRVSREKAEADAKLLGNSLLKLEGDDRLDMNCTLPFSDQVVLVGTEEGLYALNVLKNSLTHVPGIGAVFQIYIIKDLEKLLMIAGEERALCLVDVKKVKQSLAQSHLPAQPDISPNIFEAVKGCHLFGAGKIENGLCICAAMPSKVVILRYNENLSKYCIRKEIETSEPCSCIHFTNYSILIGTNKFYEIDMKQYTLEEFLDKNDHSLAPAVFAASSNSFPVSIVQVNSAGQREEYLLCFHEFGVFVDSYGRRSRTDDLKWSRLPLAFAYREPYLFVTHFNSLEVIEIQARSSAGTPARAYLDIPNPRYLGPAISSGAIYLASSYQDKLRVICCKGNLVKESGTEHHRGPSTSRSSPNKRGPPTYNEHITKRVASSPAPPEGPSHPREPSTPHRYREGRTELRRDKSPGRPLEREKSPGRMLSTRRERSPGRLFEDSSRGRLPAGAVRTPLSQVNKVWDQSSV

[13] = biological target: Proto-oncogene tyrosine-protein kinase receptor Ret (Homo sapiens) (UniProt P07949); settings: Compound concentration 1000.0 nM
[14] = biological target: Mitogen-activated protein kinase 6 (Homo sapiens) (UniProt Q16659); settings: Compound concentration 1000.0 nM
[15] = biological target: Leucine-rich repeat serine/threonine-protein kinase 2 (Homo sapiens) (UniProt Q5S007); settings: Compound concentration 1000.0 nM
[16] = biological target: Serine/threonine-protein kinase Nek5 (Homo sapiens) (UniProt Q6P3R8); settings: Compound concentration 1000.0 nM
[17] = biological target: Myosin light chain kinase 2, skeletal/cardiac muscle (Homo sapiens) (UniProt Q9H1R3); settings: Compound concentration 1000.0 nM
[18] = biological target: Leukocyte tyrosine kinase receptor (Homo sapiens) (UniProt P29376); settings: Compound concentration 1000.0 nM
Leukocyte tyrosine kinase receptor (Homo sapiens), sequence (P29376 whole entry): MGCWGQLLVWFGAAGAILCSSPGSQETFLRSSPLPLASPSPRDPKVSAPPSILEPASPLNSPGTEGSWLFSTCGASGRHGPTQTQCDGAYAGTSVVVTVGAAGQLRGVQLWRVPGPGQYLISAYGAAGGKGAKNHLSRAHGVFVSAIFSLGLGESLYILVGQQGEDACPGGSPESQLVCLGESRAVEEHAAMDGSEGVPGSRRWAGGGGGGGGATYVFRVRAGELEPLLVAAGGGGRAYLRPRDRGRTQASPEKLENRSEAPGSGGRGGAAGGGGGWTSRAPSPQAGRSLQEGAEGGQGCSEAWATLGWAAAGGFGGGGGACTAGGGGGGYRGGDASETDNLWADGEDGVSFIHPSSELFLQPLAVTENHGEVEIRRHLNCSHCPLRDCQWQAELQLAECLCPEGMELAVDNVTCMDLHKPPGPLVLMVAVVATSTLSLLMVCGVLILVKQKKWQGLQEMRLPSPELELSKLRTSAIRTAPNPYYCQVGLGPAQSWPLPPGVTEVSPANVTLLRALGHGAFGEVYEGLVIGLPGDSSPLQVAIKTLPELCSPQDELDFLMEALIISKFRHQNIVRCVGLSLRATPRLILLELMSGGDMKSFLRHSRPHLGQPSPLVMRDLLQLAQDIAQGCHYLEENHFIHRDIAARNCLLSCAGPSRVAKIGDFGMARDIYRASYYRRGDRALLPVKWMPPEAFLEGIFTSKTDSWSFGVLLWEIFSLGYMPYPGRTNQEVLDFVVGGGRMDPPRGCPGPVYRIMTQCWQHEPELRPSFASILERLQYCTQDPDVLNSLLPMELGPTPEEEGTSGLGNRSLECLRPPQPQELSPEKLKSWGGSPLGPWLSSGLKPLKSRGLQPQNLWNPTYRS

[19] = biological target: Calcium/calmodulin-dependent protein kinase type IV (Homo sapiens) (UniProt Q16566); settings: Compound concentration 1000.0 nM
[20] = biological target: Cytoplasmic tyrosine-protein kinase BMX (Homo sapiens) (UniProt P51813); settings: Compound concentration 1000.0 nM
[21] = biological target: MAP kinase-interacting serine/threonine-protein kinase 2 (Homo sapiens) (UniProt Q9HBH9); settings: Compound concentration 1000.0 nM
[22] = biological target: Ephrin type-B receptor 2 (Homo sapiens) (UniProt P29323); settings: Compound concentration 1000.0 nM
[23] = biological target: Serine/threonine-protein kinase Chk1 (Homo sapiens) (UniProt O14757); settings: Compound concentration 1000.0 nM
[24] = biological target: Activated CDC42 kinase 1 (Homo sapiens) (UniProt Q07912); settings: Compound concentration 1000.0 nM
Activated CDC42 kinase 1 (Homo sapiens), sequence (Q07912 whole entry, looked up): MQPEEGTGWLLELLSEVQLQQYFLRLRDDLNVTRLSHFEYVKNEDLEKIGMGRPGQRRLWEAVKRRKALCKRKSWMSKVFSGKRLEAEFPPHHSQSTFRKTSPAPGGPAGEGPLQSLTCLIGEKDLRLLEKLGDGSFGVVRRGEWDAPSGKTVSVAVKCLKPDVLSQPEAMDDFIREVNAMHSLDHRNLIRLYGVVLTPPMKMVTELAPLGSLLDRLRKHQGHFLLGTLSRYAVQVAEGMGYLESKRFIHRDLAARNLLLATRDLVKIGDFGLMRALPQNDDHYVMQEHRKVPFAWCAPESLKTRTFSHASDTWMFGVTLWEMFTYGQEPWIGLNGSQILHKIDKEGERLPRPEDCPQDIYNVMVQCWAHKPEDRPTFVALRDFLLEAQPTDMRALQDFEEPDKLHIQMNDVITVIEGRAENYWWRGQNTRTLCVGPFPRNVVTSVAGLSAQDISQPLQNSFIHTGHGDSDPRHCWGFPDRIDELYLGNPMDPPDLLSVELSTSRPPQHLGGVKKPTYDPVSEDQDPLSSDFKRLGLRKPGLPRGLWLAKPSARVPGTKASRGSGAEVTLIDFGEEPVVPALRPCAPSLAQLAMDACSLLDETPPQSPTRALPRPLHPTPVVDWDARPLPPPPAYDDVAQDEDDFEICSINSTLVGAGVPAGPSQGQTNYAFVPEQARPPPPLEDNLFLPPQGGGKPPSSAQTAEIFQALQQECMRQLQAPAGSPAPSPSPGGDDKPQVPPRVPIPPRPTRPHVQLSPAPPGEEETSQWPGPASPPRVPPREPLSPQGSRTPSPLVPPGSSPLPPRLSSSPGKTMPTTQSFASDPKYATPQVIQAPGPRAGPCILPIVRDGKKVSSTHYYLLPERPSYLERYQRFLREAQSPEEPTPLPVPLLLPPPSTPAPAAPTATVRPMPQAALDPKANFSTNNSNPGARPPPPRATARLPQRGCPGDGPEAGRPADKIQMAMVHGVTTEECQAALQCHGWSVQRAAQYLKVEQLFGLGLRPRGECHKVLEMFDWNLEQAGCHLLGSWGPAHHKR

[25] = biological target: Dual specificity testis-specific protein kinase 1 (Homo sapiens) (UniProt Q15569); settings: Compound concentration 1000.0 nM
[26] = biological target: Mitogen-activated protein kinase kinase kinase kinase 1 (Homo sapiens) (UniProt Q92918); settings: Compound concentration 1000.0 nM
[27] = biological target: Serine/threonine-protein kinase MAK (Homo sapiens) (UniProt P20794); settings: Compound concentration 1000.0 nM
[28] = biological target: T1, Muscarinic acetylcholine receptor M2 (Homo sapiens) (UniProt P08172); settings: Compound concentration 10.0 uM
T1 sequence (whole entry): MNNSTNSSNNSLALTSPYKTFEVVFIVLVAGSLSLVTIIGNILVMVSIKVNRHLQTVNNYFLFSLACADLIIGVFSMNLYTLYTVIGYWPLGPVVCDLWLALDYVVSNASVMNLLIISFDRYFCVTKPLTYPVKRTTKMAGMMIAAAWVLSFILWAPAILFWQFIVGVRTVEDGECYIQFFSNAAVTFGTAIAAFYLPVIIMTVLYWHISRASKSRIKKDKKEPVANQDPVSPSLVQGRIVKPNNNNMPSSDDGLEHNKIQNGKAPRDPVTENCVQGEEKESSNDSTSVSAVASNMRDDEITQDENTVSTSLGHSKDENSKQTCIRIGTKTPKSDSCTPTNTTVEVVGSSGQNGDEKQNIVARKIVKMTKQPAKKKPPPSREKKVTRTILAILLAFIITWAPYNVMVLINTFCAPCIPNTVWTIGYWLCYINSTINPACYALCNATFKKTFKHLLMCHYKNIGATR

[29] = biological target: Protein kinase C eta type (Homo sapiens) (UniProt P24723); settings: Compound concentration 1000.0 nM
[30] = system: Mast/stem cell growth factor receptor Kit (Homo sapiens), P10721 [D816H]; settings: Compound concentration 1000.0 nM
[31] = biological target: Tyrosine-protein kinase ABL1 (Homo sapiens) (UniProt P00519); settings: Compound concentration 1000.0 nM
[32] = biological target: Activin receptor type-1B (Homo sapiens) (UniProt P36896); settings: Compound concentration 1000.0 nM
[33] = biological target: Interferon-induced, double-stranded RNA-activated protein kinase (Homo sapiens) (UniProt P19525); settings: Compound concentration 1000.0 nM
[34] = biological target: Fibroblast growth factor receptor 1 (Homo sapiens) (UniProt P11362); settings: Compound concentration 1000.0 nM
[35] = biological target: 5-hydroxytryptamine receptor 2A (Homo sapiens, UniProt P28223); settings: Compound concentration 10.0 uM
[36] = biological target: Activin receptor type-1-like (Homo sapiens) (UniProt P37023); settings: Compound concentration 1000.0 nM
[37] = biological target: Myosin light chain kinase, smooth muscle (Homo sapiens) (UniProt Q15746); settings: Compound concentration 1000.0 nM
[38] = biological target: Serine/threonine-protein kinase STK11 (Homo sapiens) (UniProt Q15831); settings: Compound concentration 1000.0 nM
[39] = biological target: Tyrosine-protein kinase Lck (Homo sapiens) (UniProt P06239); settings: Compound concentration 1000.0 nM

SMILES	inhibition [1]	residual activity [2]	residual activity [3]	residual activity [4]	residual activity [5]	residual activity [6]	residual activity [7]	residual activity [8]	inhibition [9]	residual activity [10]	residual activity [11]	residual activity [12]	residual activity [13]	residual activity [14]	residual activity [15]	residual activity [16]	residual activity [17]	residual activity [18]	residual activity [19]	residual activity [20]	further results
Cc1nccc(COC(=O)N2C[C@@H]3[C@@H](CNC(=O)c4ccc5[nH]nnc5c4)[C@@H]3C2)n1 [BI 3017]	9.03%	100%	98%	65%	94%	95%	93%	87%	31.8%	100%	85%	100%	93%	93%	100%	87%	90%	93%	95%	88%	residual activity [21]: 90%; residual activity [22]: 100%; residual activity [23]: 100%; residual activity [24]: 100%; residual activity [25]: 98%; residual activity [26]: 100%; residual activity [27]: 98%; inhibition [28]: -5.6%; residual activity [29]: 98%; residual activity [30]: 99%; residual activity [31]: 91%; residual activity [32]: 92%; residual activity [33]: 100%; residual activity [34]: 91%; inhibition [35]: 7.65%; residual activity [36]: 100%; residual activity [37]: 100%; residual activity [38]: 100%; residual activity [39]: 94%
O=C(NC[C@@H]1[C@H]2CN(C(=O)OCc3cc(C(F)(F)F)cc(C(F)(F)F)c3)C[C@@H]12)c1ccc2[nH]nnc2c1 [BI 2545]	-5.26%	95%	94%	86%	80%	86%	84%	79%	33.6%	100%	92%	100%	100%	88%	91%	94%	97%	98%	100%	81%	residual activity [21]: 90%; residual activity [22]: 100%; residual activity [23]: 92%; residual activity [24]: 100%; residual activity [25]: 79%; residual activity [26]: 83%; residual activity [27]: 100%; inhibition [28]: 7.11%; residual activity [29]: 100%; residual activity [30]: 100%; residual activity [31]: 87%; residual activity [32]: 100%; residual activity [33]: 45%; residual activity [34]: 90%; inhibition [35]: 51.4%; residual activity [36]: 100%; residual activity [37]: 88%; residual activity [38]: 100%; residual activity [39]: 100%
